The source of these data is patent publication USRE39114E1, “Expression of sucrose phosphorylase in plants” (Monsanto Technology LLC, priority 1995, dated 2006).

For series [1], the target named is Streptococcus mutans sucrose phosphorylase (GtfA), gene gtfA SEQ ID NO:5 (Streptococcus mutans serotype c, UniProt P10249). The settings on record: 50 mM Pi, 100 mM sucrose, 35° C., pH 7.0. The text has this: (§1) To further characterize the sucrose phosphorylases from S. mutans and L. mesenteroides, plasmid constructs containing the spl or the gtfA genes were made for protoplast transformation. A 1461 bp NcoI/BamHI fragment, containing the gtfA gene was isolated by restriction digestion, gel purified, and ligated to a 4646 bp BamHI/NcoI vector fragment containing the enhanced 35S promoter (e35S; Kay et al., 1987), the HSP70 intron (U.S. Pat. No. 5,593,874), the Nopaline synthase 3′ region (Fraley et al., 1983), and a pUC vector derived backbone. A vector was thus created, containing the expression cassette [p-e35S/HSP70/gtfA/NOS3′]. After ligation, the plasmid constructs were transformed into competent DH5α cells, and the transformed cells were plated out on Ampicillin-containing medium. From the colonies that were formed, positive clones were identified by restriction digest. In a similar experiment a 1491bp NcoI/BamHI fragment, containing the spl gene, was isolated by restriction digestion, gel purified, and ligated to the same 4646bp BamHI/NcoI vector fragment (described above). After ligation, transformation of competent cells, and identification of positive clones, the resulting plasmid constructs were used for corn leaf protoplast transformation. Corn leaf protoplast transformation was performed essentially as described by Sheen J., 1991, with some modifications to the protocol.
Streptococcus mutans sucrose phosphorylase (GtfA), gene gtfA SEQ ID NO:5, sequence (P10249 whole entry, looked up, change not shown, the tested form may be a part): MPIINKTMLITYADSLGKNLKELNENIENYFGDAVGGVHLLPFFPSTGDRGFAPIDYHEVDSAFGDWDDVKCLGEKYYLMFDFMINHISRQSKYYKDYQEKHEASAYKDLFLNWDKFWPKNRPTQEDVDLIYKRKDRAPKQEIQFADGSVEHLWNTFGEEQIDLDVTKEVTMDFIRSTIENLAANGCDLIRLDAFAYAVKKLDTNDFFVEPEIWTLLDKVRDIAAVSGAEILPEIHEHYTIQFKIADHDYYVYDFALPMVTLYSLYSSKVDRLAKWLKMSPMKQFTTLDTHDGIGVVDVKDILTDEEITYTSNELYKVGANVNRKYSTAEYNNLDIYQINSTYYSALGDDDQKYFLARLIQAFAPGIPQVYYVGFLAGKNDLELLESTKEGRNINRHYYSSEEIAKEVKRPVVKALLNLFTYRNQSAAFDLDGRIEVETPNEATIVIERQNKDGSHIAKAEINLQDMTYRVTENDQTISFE

For series [2], the target named is Leuconostoc mesenteroides sucrose phosphorylase (Spl), gene spl SEQ ID NO:6 (Leuconostoc mesenteroides, UniProt Q59495). The settings on record: 50 mM Pi, 100 mM sucrose, 35° C., pH 7.0.
Excerpt: as §1

For series [3], the target named is T1, Leuconostoc mesenteroides sucrose phosphorylase (Spl, L. mesenteroides SP), wild type, gene spl SEQ ID NO:6 (Leuconostoc mesenteroides, UniProt Q59495).
T1 construct: fragment containing the spl gene, encoding the Leuconostoc mesenteroides sucrose phosphorylase enzyme; made in house; host or cells: E. coli BL21 (DE3)
T1 sequence (Q59495 1-490): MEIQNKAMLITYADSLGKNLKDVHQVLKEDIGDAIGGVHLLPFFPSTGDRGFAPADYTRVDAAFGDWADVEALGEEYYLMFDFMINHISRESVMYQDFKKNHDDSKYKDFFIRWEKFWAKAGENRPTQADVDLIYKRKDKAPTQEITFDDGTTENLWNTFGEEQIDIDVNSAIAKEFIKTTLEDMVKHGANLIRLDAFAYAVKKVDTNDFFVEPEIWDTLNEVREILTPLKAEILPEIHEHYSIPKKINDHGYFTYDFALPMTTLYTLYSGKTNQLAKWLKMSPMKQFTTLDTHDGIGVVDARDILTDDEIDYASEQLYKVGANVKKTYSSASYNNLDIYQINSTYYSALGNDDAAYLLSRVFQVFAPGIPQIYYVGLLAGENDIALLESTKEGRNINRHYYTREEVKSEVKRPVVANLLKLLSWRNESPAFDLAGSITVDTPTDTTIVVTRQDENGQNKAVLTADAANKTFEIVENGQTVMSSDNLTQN
As to the kind of experiment: Kinetic analysis of sucrose phosphorylase Spl (continuous coupled spectrophotometric assay). The class given is biochemical. The following applies: 25° C., pH 7.0, read-out: Km(Pi).

The test system of series [4] is sucrose phosphorylase (microbial). The settings on record: general statement, no method given; cited from earlier work.
In series [5] the target is T2, Streptococcus mutans sucrose phosphorylase (GtfA, S. mutans SP), wild type, gene gtfA SEQ ID NO:5 (Streptococcus mutans serotype c, UniProt P10249). Further details: fragment containing the gtfA gene coding for the Streptococcus mutans sucrose phosphorylase, was cloned into the expression vector pET15b; made in house; host or cells: E. coli BL21 (DE3). The settings on record: compared with endogenous maize endosperm enzymes; in words; cited from earlier work.
T2 sequence (P10249 whole entry, looked up, change not shown, the tested form may be a part): as the sequence (P10249 whole entry, looked up, change not shown, the tested form may be a part) above

Series [6] concerns the target T2, Streptococcus mutans sucrose phosphorylase (GtfA, S. mutans SP), wild type, gene gtfA SEQ ID NO:5. The settings on record: ratio to L. mesenteroides enzyme.
The test system of series [7] is OC[C@H]1O[C@@](CO)(O[C@H]2O[C@H](CO)[C@@H](O)[C@H](O)[C@H]2O)[C@@H](O)[C@@H]1O. Briefly: purified protein, by the assay type. The following applies: other: 25° C., pH 7.0, S. mutans SP.
Substrate in series [8]: OC[C@H]1O[C@@](CO)(O[C@H]2O[C@H](CO)[C@@H](O)[C@H](O)[C@H]2O)[C@@H](O)[C@@H]1O
As to the kind of experiment: Kinetic analysis of sucrose phosphorylase Spl (continuous coupled spectrophotometric assay). The class given is biochemical, Leuconostoc mesenteroides. The following applies: other: 25° C., pH 7.0, L. mesenteroides SP.

The Km is the substrate concentration at which the rate is half of its maximum. `O=P(O)(O)O` [Pi, inorganic phosphate]: the “activity (% of optimal activity)” value is 100% in series [1] and “about 80%” in series [2]. The Km in series [3] worked out at 4.88 mM.

For `OC[C@H]1O[C@@](CO)(O[C@H]2O[C@H](CO)[C@@H](O)[C@H](O)[C@H]2O)[C@@H](O)[C@@H]1O` [sucrose], the Km in series [4] is 1 to 25 mM. For the same molecule, in series [5], the “Km of GftA for sucrose relative to the endogenous enzymes” value was “lower Km”. In series [6], the “Km(sucrose) of the S. mutans enzyme lower than that of the L. mesenteroides enzyme” value is reported as “about 10 times lower” and the “Vmax of S. mutans sucrose phosphorylase lower than that of the enzyme from L. mesenteroides” value is reported as “about 9 times lower”.

For “Streptococcus mutans sucrose phosphorylase (GtfA, S. mutans SP), wild type, gene gtfA SEQ ID NO:5 (Streptococcus mutans UA159)”, in series [7], the Km is 0.33 mM and the Vmax stood at 8.5 U/mg.

B1: Leuconostoc mesenteroides sucrose phosphorylase (Spl, L. mesenteroides SP), wild type, gene spl SEQ ID NO:6 (Leuconostoc mesenteroides) (protein)
chain: T1 sequence (Q59495 1-490)
notes: fragment containing the spl gene, encoding the Leuconostoc mesenteroides sucrose phosphorylase enzyme; made in house; host or cells: E. coli BL21 (DE3)
Regarding B1, in series [8], the Km came to 3.39 mM and the Vmax came to 71.3 U/mg.
